Measured values as given in patent US20050176773A1, “Antiproliferative 2-(heteroaryl)-aminothiazole compounds and pharmaceutical compositions, and method for their use” (AGOURON PHARMACEUTICALS, INC., priority 2003, published 2005).

Experiments:
HCT-116 cells = experiment: Inhibition of cell growth, MTT tetrazolium salt assay; assay type: cell-based; conditions: Homo sapiens, 144 h, four to six days incubation; for IC50: first value of the cell, read-out: HCT116 IC50; for IC90: second value of the cell, 90% inhibition of growth, read-out: HCT116 IC90
Method: Inhibition of Cell Growth: Assessment of Cytotoxicity:
Inhibition of cell growth was measured using the tetrazolium salt assay, which is based on the ability of viable cells to reduce 3-(4,5-dimethylthiazol-2-yl)-2,5-[2H]-diphenyltetrazolium bromide (MTT) to formazan (Mosmann, T. J. Immunol. Methods 1983, 65, 55-63). The water-insoluble purple formazan product was then detected spectrophotometrically. HCT-116 cells were grown in 96-well plates. Cells were plated in the appropriate medium at a volume of 135 μl/well in either McCoy's 5A Medium. Plates were incubated for 4 hours before addition of inhibitor compounds. Different concentrations of inhibitor compounds were added in 0.5% (v/v) dimethylsulfoxide (15 μL/well), and cells were incubated at 37° C. (5% CO2) for four to six days (depending on cell type). At the end of the incubation, MTT was added to a final concentration of 0.2 mg/mL, and cells were incubated for 4 hours more at 37° C. After centrifugation of the plates and removal of medium, the absorbance of the formazan (solubilized in dimethylsulfoxide) was measured at 540 nm. The concentration of inhibitor compound causing 50% (IC50) or 90% (IC90) inhibition of growth was determined from the linear portion of a semi-log plot of inhibitor concentration versus percentage inhibition. All results were compared to control cells treated only with 0.5% (v/v) dimethylsulfoxide.

[1] = target: T1, human CDK4 / truncated (1-264) cyclin D3 complex (Homo sapiens, UniProt P11802); experiment: Inhibition of CDK4/Cyclin D retinoblastoma kinase activity; assay type: biochemical; conditions: Rb fragment substrate, enzyme complex 5 nM
T1 construct: made in house; host or cells: insect cells (baculovirus co-infection)
T1 sequence (P11802 whole entry, the tested form may be a part): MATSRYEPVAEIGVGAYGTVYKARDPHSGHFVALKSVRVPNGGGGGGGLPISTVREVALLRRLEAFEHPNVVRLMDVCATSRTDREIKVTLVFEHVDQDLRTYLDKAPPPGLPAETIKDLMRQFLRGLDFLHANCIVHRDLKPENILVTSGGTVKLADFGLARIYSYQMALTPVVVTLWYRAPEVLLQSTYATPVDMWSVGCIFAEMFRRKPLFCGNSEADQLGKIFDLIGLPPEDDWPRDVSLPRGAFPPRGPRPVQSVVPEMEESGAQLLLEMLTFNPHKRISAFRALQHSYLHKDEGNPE
T1 sequence (P30281 1-264 partner limits assumed): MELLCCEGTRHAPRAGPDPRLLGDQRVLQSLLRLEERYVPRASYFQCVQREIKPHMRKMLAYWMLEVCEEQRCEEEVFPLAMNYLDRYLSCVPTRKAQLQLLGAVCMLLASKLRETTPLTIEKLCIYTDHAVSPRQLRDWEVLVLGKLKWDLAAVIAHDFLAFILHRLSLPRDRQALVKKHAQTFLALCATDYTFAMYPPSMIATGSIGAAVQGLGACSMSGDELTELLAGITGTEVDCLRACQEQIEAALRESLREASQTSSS
Method: Inhibition of CDK4/Cyclin D Retinoblastoma Kinase Activity:
A complex of human CDK4 and genetically truncated (1-264) cyclin D3 was purified using traditional biochemical chromatographic techniques from insect cells that had been co-infected with the corresponding baculovirus expression vectors (see e.g., Meijer, L.; Kim, S.-H. In Methods Enzymol. 1997, 283, 113-128). The enzyme complex (5 nM) was assayed with 0.3-0.5 μg of purified recombinant retinoblastoma protein fragment (Rb) as a substrate. The engineered Rb fragment (residues 386-928 of the native retinoblastoma protein; 62.3 kDa) contains the majority of the phosphorylation sites found in the native 106-kDa protein, as well as a tag of six histidine residues for ease of purification. Phosphorylated Rb substrate was captured by microfiltration on a nitrocellulose membrane and quantified using a phosphorimager as described above. For measurement of tight-binding inhibitors, the assay duration was extended to 60 minutes, during which the time dependence of product formation was linear and initial rate conditions were met.

[2] = target: T2, CDK2 / proteolyzed cyclin A complex (Homo sapiens, UniProt P24941); experiment: Inhibition of CDK2/Cyclin A retinoblastoma kinase activity; assay type: biochemical; conditions: Rb fragment substrate, CDK2 at 10 nM or 19 nM
T2 construct: made in house; host or cells: CDK2: insect cells (baculovirus); cyclin A: E. coli, then limited proteolysis
Text: Inhibition of CDK2/Cyclin A Retinoblastoma Kinase Activity:
CDK2 was purified using published methodology (Rosenblatt, J.; De Bondt, H.; Jancarik, J.; Morgan, D. O.; Kim, S. H. J. Mol. Biol. 1993, 230, 1317-1319) from insect cells that had been infected with a baculovirus expression vector. Cyclin A was purified from E. coli cells expressing full-length recombinant cyclin A, and a truncated cyclin A construct was generated by limited proteolysis and purified as described previously (Jeffrey, P. D.; Russo, A. A.; Polyak, K.; Gibbs, E.; Hurwitz, J.; Massague, J.; Pavletich, N. P. Nature 1995, 376, 313-320.). A complex of CDK2 and proteolyzed cyclin A was prepared and purified by gel filtration. The substrate for this assay was the same Rb substrate fragment used for the CDK4 assays, and the methodology of the CDK2/delta cyclin A and the CDK4/delta cyclin D3 assays was essentially the same, except that CDK2 was present at 10 nM or 19 nM. The duration of the assay was 60 or 75 minutes, during which the time dependence of product formation was linear and initial rate conditions were met.

Structure (SMILES)	IC50 (HCT-116 cells) [nM]	IC90 (HCT-116 cells) [nM]	Ki [1] [nM]	Ki [2] [nM]
CN(C)C(C)(C)CNC(=O)c1ccc(Nc2nc(N)c(C(=O)c3c(F)cccc3F)s2)nc1 [Example 1L]	2.5	8.5	1.3	8.6
CN(C)CCNC(=O)c1ccc(Nc2nc(N)c(C(=O)c3c(F)cccc3F)s2)nc1 [Example 1K, 6-[4-Amino-5-(2,6-difluoro-benzoyl)-thiazol-2-ylamino]-N-(2-dimethylamino-ethyl)-nicotinamide]	8.8	21	1.4	9.8
Nc1nc(Nc2ccc(C(=O)NCCN3CCCCC3)cn2)sc1C(=O)c1c(F)cccc1F [Example 1F, 6-[4-Amino-5-(2,6-difluoro-benzoyl)-thiazol-2-ylamino]-N-(2-piperidin-1-yl-ethyl)-nicotinamide]	17	40	4.3	18
Nc1nc(Nc2ccc(C(=O)Nc3ccccn3)cn2)sc1C(=O)c1c(F)cccc1F [Example 1G, 6-[4-Amino-5-(2,6-difluoro-benzoyl)-thiazol-2-ylamino]-N-pyridin-2-yl-nicotinamide]	170	36000	35	18
CNC(C)(C)CNC(=O)c1ccc(Nc2nc(N)c(C(=O)c3c(F)cccc3F)s2)nc1 [Example 1M]	70	250	2.3	35
CCN1CCCC1CNC(=O)c1ccc(Nc2nc(N)c(C(=O)c3c(F)cccc3F)s2)nc1 (centres unmarked) [Example 1H, 6-[4-Amino-5-(2,6-difluoro-benzoyl)-thiazol-2-ylamino]-N-(1-ethyl-pyrrolidin-2-ylmethyl)-nicotinamide]	32	60	7.1	43
Nc1nc(Nc2ccc(C(=O)NCc3ccccn3)cn2)sc1C(=O)c1c(F)cccc1F [Example 1C, 6-[4-Amino-5-(2,6-difluoro-benzoyl)-thiazol-2-ylamino]-N-pyridin-2-ylmethyl-nicotinamide]	79	210	12	7.2
Nc1nc(Nc2ccc(C(=O)Nc3ccccc3)cn2)sc1C(=O)c1c(F)cccc1F [Example 1E, 6-[4-Amino-5-(2,6-difluoro-benzoyl)-thiazol-2-ylamino]-N-phenyl-nicotinamide]	180	400	18	17
CN1CCC[C@H]1CNC(=O)c1ccc(Nc2nc(N)c(C(=O)c3c(F)cccc3F)s2)nc1 [Example 1A]	7	170	0.77	7.3
Nc1nc(Nc2ccc(C(=O)NCCN3CCCC3)cn2)sc1C(=O)c1c(F)cccc1F [Example 1J, 6-[4-Amino-5-(2,6-difluoro-benzoyl)-thiazol-2-ylamino]-N-(2-pyrrolidin-1-yl-ethyl)-nicotinamide]	17	50	2.2	11
CN1CCC[C@H]1CNC(=O)c1ccc(Nc2nc(N)c(C(=O)c3c(F)cccc3F)s2)cn1 [Example C1A, 5-[4-Amino-5-(2,6-difluoro-benzoyl)-thiazol-2-ylamino]-pyridine-2-carboxylic acid (1-methyl-pyrrolidin-2S-ylmethyl)-amide, reference compound]	230	650	37	320
C[C@H](CN(C)C)NC(=O)c1ccc(Nc2nc(N)c(C(=O)c3c(F)cccc3F)s2)nc1 [Example 1I, 6-[4-Amino-5-(2,6-difluoro-benzoyl)-thiazol-2-ylamino]-N-(2-dimethylamino-1R-methyl-ethyl)-nicotinamide]	2.6	5.7	0.61	4.4
Nc1nc(Nc2ccc(C(=O)NCc3cccnc3)cn2)sc1C(=O)c1c(F)cccc1F [Example 1D, 6-[4-Amino-5-(2,6-difluoro-benzoyl)-thiazol-2-ylamino]-N-pyridin-3-ylmethyl-nicotinamide]	410	> 5000	6.6	5.7
C[C@H](CN(C)C)NC(=O)c1ccc(Nc2nc(N)c(C(=O)c3c(F)cccc3F)s2)cn1 [Example C1B, 5-[4-Amino-5-(2,6-difluoro-benzoyl)-thiazol-2-ylamino]-pyridine-2-carboxylic Acid (2-Dimethylamino-1R-methyl-ethyl)-amide, reference compound]	120	280	120	400
CNCCNC(=O)c1ccc(Nc2nc(N)c(C(=O)c3c(F)cccc3F)s2)nc1 [Example 3A]	210	700	3.3	21
CN1CCN(c2ccc(Nc3nc(N)c(C(=O)c4c(F)cccc4F)s3)nc2)CC1 [Example 2A, {4-Amino-2-[5-(4-methyl-piperazin-1-yl)-pyridin-2-ylamino]-thiazol-5-yl}-(2,6-difluoro-phenyl)-methanone]	70	180	1.1	32
CN(C)C1(CNC(=O)c2ccc(Nc3nc(N)c(C(=O)c4c(F)cccc4F)s3)nc2)CCC1 [Example 1B, 6-[4-Amino-5-(2,6-difluoro-benzoyl)-thiazol-2-ylamino]-N-(1-dimethylaminocyclobutylmethyl)-nicotinamide]	5.8	20	2.7	39
